From patent publication US20130084335A1, “IVABRADINE-CONTAINING PHARMACEUTICAL COMPOSITION” (ratiopharm GmbH, priority 2010, published 2013)

Experiments:
[1] = Stability at different temperatures and humidities in open or closed containers (polymorphic form); assay type: physicochemical; conditions: for Stability, summary in words: various conditions, phase transition in particular in open containers
Procedure: XRD samples were analysed on a Bruker-AXS D8 Advance powder X-Ray diffractometer. The measurement conditions were as follows: • Measurement in Bragg-Brentano-Geometry on vertical goniometer (reflection, theta/theta, 435 mm measurement circle diameter) • with sample rotation (30 rpm) on 9 position sample stage • Radiation: Cu Kα1 (1.5406 Å), Tube (Siemens FLCu2K), power 40 kV/40 mA • Detector: position sensitive detector VANTEC-1 • 3° capture angle (2theta), • Anti scatter slit 6.17 mm • Detector slit 10.39 mm • 4° soller slit, • primary beam stop (<2° 2theta) • Monochromator: None • Second β filter: Ni filter 0.1 mm (0.5%) • Start angle: 2° • End Angle: 55° • Measurement time: 11 min • Step: 0.016° 2Theta • Software: EVA (Bruker-AXS, Karlsruhe).
The stability of ivabradine adipate in comparison to ivabradine hydrochloride form I was investigated at different temperatures and humidities in open or closed containers for different storage times.

[2] = Particle size by laser diffractometry; assay type: physicochemical
Procedure: The term “particle size” according to the present invention relates to the maximum diameter of the equivalent product assuming spherical opaque particles showing the same light scattering pattern and the same diffraction as the active substance particles. According to the invention the particle size is determined by means of laser light diffraction. The determination of the size distribution results from the analysis of the diffraction pattern that is obtained if particles are exposed to a monochromatic light beam. The particles refract the light with small particles refracting the light in a greater angle than large particles. The refracted light is measured by a number of photo detectors arranged in different angles. On the other hand, the light spectra of the […] have to be recorded by light-sensitive detectors in greater angles over the laser beam. Large particles result in greater intensity maxima with small angles, small particles to weaker intensity maxima with greater angles. Thus, in the laser light diffraction the pattern resulting from the interaction of the light with the particles is used for the determination of the particle size.
According to the invention the particle size is determined by means of laser diffractometry. For that, a Mastersizer 2000 by Malvern Instruments having the corresponding sample dispersing unit Hydro S is used. The wet measurement (2500 rpm, ultrasound 10-20 min., shading 5 to 20%) takes place in a dispersion of sunflower oil with the particle spacing in the dispersion being about 3-5 times greater than the particle diameter.
Moreover, the Mie theory defines the secondary scattering caused by the refraction of the light on small particles, as in the international rules of the laser diffraction measurement. (ISO 13320)
The determination of the particle size for particles D50 smaller than 5.0 μm is carried out according to the Mie method and for particles D50 greater than 5.0 μm according to the Fraunhofer method.

Row | Stability (crystal form after storage) ([1]; 25° C./60%, closed, 33 d) | Stability (crystal form after storage) ([1]; 25° C./60%, open, 33 d) | Stability (crystal form after storage) ([1]; 30° C./65%, closed, 33 d) | Stability (crystal form after storage) ([1]; 30° C./65%, open, 33 d) | Stability (crystal form after storage) ([1]; 40° C./75%, closed, 33 d) | Stability (crystal form after storage) ([1]; 40° C./75%, open, 33 d) | Particle size D50 [2] | Particle size D90 [2] | Stability (crystal form after storage) ([1]; 25° C./60%, closed, 57 d) | Stability (crystal form after storage) ([1]; 25° C./60%, open, 57 d) | Stability (crystal form after storage) ([1]; 30° C./65%, closed, 57 d) | Stability (crystal form after storage) ([1]; 30° C./65%, open, 57 d) | Stability (crystal form after storage) ([1]; 40° C./75%, closed, 57 d) | Stability (crystal form after storage) ([1]; 40° C./75%, open, 57 d) | SMILES | Stability, summary in words [1]
1 | unchanged | β + | unchanged | β | unchanged | β | 19.10 μm | 44.11 μm | – | – | – | – | – | – | COc1cc2c(cc1OC)CC(=O)N(CCCN(C)C[C@H]1Cc3cc(OC)c(OC)cc31)CC2.Cl [Ivabradine HCl form I] | undergoes phase transition into ivabradine HCl, form beta, or form d
2 | – | – | – | – | – | – | 18.35 μm | 52.71 μm | unchanged | unchanged | unchanged | unchanged | unchanged | unchanged | COc1cc2c(cc1OC)CC(=O)N(CCCN(C)C[C@H]1Cc3cc(OC)c(OC)cc31)CC2.O=C(O)CCCCC(=O)O [Ivabradine adipate] | stable at various conditions
